Where two headings read alike, the source gives them in different places.
What was measured:
human B-Raf = molecular target: T1, human B-Raf (Homo sapiens, UniProt P15056); assay: B-Raf Kinase to MEK1 ELISA; type: biochemical; conditions: for inhibition at 10 µM: read-out: % Inhib./10 uM
T1 construct: Flag; GST; made in house; host or cells: Sf9 insect cells (B-Raf); E. coli (MEK1-GST)
Procedure, shortened: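 Flag/GST-tagged human B-Raf (Sf9, ~20 ng/point) phosphorylates non-active GST-MEK1 (50 nM final) with ATP and MgCl2 in MOPS pH 7.2 buffer, 60 min at RT. Product is captured on anti-GST plates; MEK1 pSer217/221 is read by phospho-antibody plus europium conjugate (DELFIA).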

[1] = median, cpd concentrations from 10 μM to 30 nM in half log dilutions, read-out: Median IC50

T1 sequence (P15056 whole entry): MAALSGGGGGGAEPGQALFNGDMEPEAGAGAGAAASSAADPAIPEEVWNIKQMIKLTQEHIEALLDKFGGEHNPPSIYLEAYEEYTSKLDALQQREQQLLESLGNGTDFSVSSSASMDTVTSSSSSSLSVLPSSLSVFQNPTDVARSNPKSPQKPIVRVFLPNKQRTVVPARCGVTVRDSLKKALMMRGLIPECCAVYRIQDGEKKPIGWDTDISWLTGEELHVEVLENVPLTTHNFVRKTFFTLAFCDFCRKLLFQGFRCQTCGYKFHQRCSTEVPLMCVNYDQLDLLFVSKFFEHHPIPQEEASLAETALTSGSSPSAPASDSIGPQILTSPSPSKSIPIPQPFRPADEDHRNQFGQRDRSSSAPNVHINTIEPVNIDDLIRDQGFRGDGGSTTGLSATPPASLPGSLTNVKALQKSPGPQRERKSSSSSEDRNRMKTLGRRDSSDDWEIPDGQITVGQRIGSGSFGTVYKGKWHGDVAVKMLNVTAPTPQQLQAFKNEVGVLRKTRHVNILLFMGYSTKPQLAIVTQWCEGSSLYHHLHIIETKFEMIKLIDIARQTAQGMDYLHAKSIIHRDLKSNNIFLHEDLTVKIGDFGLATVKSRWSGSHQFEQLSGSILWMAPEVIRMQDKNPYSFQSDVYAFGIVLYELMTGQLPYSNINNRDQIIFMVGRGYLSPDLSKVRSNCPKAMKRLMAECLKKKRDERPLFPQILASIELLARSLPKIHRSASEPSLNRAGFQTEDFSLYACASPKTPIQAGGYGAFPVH

Molecule `CN1CC=C(c2cnn3c(-c4cccc(NC(=O)c5cccc(C(F)(F)F)c5)c4)ccnc23)CC1` [Example 306, N-{3-[3-(1-methyl-1,2,3,6-tetrahydropyridin-4-yl)pyrazolo[1,5-a]pyrimidin-7-yl]phenyl}-3-(trifluoromethyl)benzamide] has an IC50 (human B-Raf; [1]) of 851 nM, an inhibition at 10 µM (human B-Raf) of 68% and a melting point of 163 to 165 °C.

With `CN1CCC(c2cnn3c(-c4cccc(NC(=O)c5cccc(C(F)(F)F)c5)c4)ccnc23)CC1` [Example 309, N-{3-[3-(1-methylpiperidin-4-yl)pyrazolo[1,5-a]pyrimidin-7-yl]phenyl}-3-(trifluoromethyl)benzamide] the IC50 (human B-Raf; [1]) was 1330 nM, the inhibition at 10 µM (human B-Raf) was 63% and the melting point was 183 to 185 °C.

In the case of `NC1CCN(c2cc3nccc(-c4cccc(NC(=O)c5cccc(C(F)(F)F)c5)c4)n3n2)C1` (stereo not shown) [Example 213, N-{3-[2-(3-aminopyrrolidin-1-yl)pyrazolo[1,5-a]pyrimidin-7-yl]phenyl}-3-(trifluoromethyl)benzamide], the IC50 (human B-Raf; [1]) is reported as greater than 10000 nM and the inhibition at 10 µM (human B-Raf) is reported as 40%.

With `CC(=O)NCC(=O)Nc1cccc(-c2cnn3c(-c4cccc(NC(=O)c5cccc(C(F)(F)F)c5)c4)ccnc23)c1` [Example 255, N-[3-(3-{3-[(N-acetylglycyl)amino]phenyl}pyrazolo[1,5-a]pyrimidin-7-yl)phenyl]-3-(trifluoromethyl)benzamide] the IC50 (human B-Raf; [1]) was 49 nM and the inhibition at 10 µM (human B-Raf) was 91%.

`O=C(Nc1cccc(-c2ccnc3c(C(=O)NCCCn4ccnc4)cnn23)c1)Nc1ccc(Cl)c(C(F)(F)F)c1` [Example 120, 7-{3-[({[4-chloro-3-(trifluoromethyl)phenyl]amino}carbonyl)amino]phenyl}-N-[3-(1H-imidazol-1-yl)propyl]pyrazolo[1,5-a]pyrimidine-3-carboxamide] gave an IC50 (human B-Raf; [1]) of 120 nM and an inhibition at 10 µM (human B-Raf) of 92%.

Molecule `O=C(Nc1cccc(-c2ccnc3c(-c4ccccn4)cnn23)c1)c1cccc(C(F)(F)F)c1` [Example 59, N-[3-(3-pyridin-2-ylpyrazolo[1,5-a]pyrimidin-7-yl)phenyl]-3-(trifluoromethyl)benzamide] has an IC50 (human B-Raf; [1]) greater than 10000 nM and an inhibition at 10 µM (human B-Raf) of 37%.

For `Cc1ccc(C(=O)Nc2cccc(-c3ccnc4c(Br)cnn34)c2)cc1C(F)(F)F` [Example 161, N-[3-(3-bromopyrazolo[1,5-a]pyrimidin-7-yl)phenyl]-4-methyl-3-(trifluoromethyl)benzamide], the IC50 (human B-Raf) was 670 nM and the inhibition at 10 µM (human B-Raf) was 87%.

Work on `CCOC(=O)c1cnn2c(-c3cccc(NC(=O)Nc4ccc(C)c(C)c4)c3)ccnc12` [Example 42, ethyl 7-[3-({[(3,4-dimethylphenyl)amino]carbonyl}amino)phenyl]pyrazolo[1,5-a]pyrimidine-3-carboxylate] yielded an IC50 (human B-Raf; [1]) of 3530 nM and an inhibition at 10 µM (human B-Raf) of 70%.

With `O=C(Nc1cccc(-c2ccnc3cc(N4CCNCC4)nn23)c1)c1cccc(C(F)(F)F)c1` [Example 208, N-[3-(2-piperazin-1-ylpyrazolo[1,5-a]pyrimidin-7-yl)phenyl]-3-(trifluoromethyl)benzamide] the IC50 (human B-Raf) was 6150 nM and the “% Inhib./10 uM” value (human B-Raf; single point assay, 10 uM) was 54%.

With `CCOC(=O)c1cnn2c(-c3cccc(NC(=O)Nc4ccc(Br)cc4)c3)ccnc12` [Example 41, ethyl 7-[3-({[(4-bromophenyl)amino]carbonyl}amino)phenyl]pyrazolo[1,5-a]pyrimidine-3-carboxylate] the IC50 (human B-Raf; [1]) was greater than 10000 nM and the inhibition at 10 µM (human B-Raf) was 37%.

In the case of `CN1CCCC1CCNC(=O)c1cnn2c(-c3cccc(NC(=O)c4cccc(C(F)(F)F)c4)c3)ccnc12` (stereo not shown) [Example 54, N-[2-(1-methylpyrrolidin-2-yl)ethyl]-7-(3-{[3-(trifluoromethyl)benzoyl]amino}phenyl)pyrazolo[1,5-a]pyrimidine-3-carboxamide], the IC50 (human B-Raf; [1]) is reported as greater than 10000 nM and the inhibition at 10 µM (human B-Raf) is reported as 32%.

`O=C(Nc1cccc(-c2ccnc3cc(-c4ccncc4)nn23)c1)c1ccc(Cl)c(Cl)c1` [Example 149, 3,4-dichloro-N-[3-(2-pyridin-4-ylpyrazolo[1,5-a]pyrimidin-7-yl)phenyl]benzamide] showed an IC50 (human B-Raf) of 1250 nM and an inhibition at 10 µM (human B-Raf) of 72%.

Molecule `COc1ccc(C(=O)Nc2cccc(-c3ccnc4cc(N5CCOCC5)nn34)c2)cc1C(F)(F)F` [Example 195, 4-methoxy-N-[3-(2-morpholin-4-ylpyrazolo[1,5-a]pyrimidin-7-yl)phenyl]-3-(trifluoromethyl)benzamide] has an IC50 (human B-Raf; [1]) of 220 nM and an inhibition at 10 µM (human B-Raf) of 93%.

`O=C(Nc1cccc(-c2ccnc3c(Br)cnn23)c1)c1ccc(Cl)c(C(F)(F)F)c1` [Example 164, N-[3-(3-bromopyrazolo[1,5-a]pyrimidin-7-yl)phenyl]-4-chloro-3-(trifluoromethyl)benzamide] gave an IC50 (human B-Raf; [1]) greater than 10000 nM and an inhibition at 10 µM (human B-Raf) of 58%.

For `COc1ccc(C(=O)Nc2cccc(-c3ccnc4c(-c5cccnc5)cnn34)c2)cc1C(F)(F)F` [Example 170, 4-methoxy-N-[3-(3-pyridin-3-ylpyrazolo[1,5-a]pyrimidin-7-yl)phenyl]-3-(trifluoromethyl)benzamide], the IC50 (human B-Raf) was 140 nM and the inhibition at 10 µM (human B-Raf) was 96%.

Molecule `CCOC(=O)c1cnn2c(-c3cccc(NC(=O)Nc4ccc5ccccc5c4)c3)ccnc12` [Example 21, ethyl 7-(3-{[(2-naphthylamino)carbonyl]amino}phenyl)pyrazolo[1,5-a]pyrimidine-3-carboxylate] has an IC50 (human B-Raf; [1]) of 2300 nM and an inhibition at 10 µM (human B-Raf) of 58%.

`O=C(Nc1cccc(-c2ccnc3c(-c4ccc(Cl)cc4)cnn23)c1)c1cccc(C(F)(F)F)c1` [Example 158, N-{3-[3-(4-chlorophenyl)pyrazolo[1,5-a]pyrimidin-7-yl]phenyl}-3-(trifluoromethyl)benzamide] gave an IC50 (human B-Raf; [1]) greater than 10000 nM and an inhibition at 10 µM (human B-Raf) of 39%.

Molecule `O=C(Nc1cccc(-c2ccnc3ccnn23)c1)c1cccc(C(F)(F)F)c1` [Example 153, N-(3-pyrazolo[1,5-a]pyrimidin-7-ylphenyl)-3-(trifluoromethyl)benzamide] has an IC50 (human B-Raf; [1]) greater than 10000 nM and an inhibition at 10 µM (human B-Raf) of 31%.

For `CCOC(=O)c1cnn2c(-c3cccc(NS(=O)(=O)c4cccc(C(F)(F)F)c4)c3)ccnc12` [Example 12, ethyl 7-[3-({[3-(trifluoromethyl)phenyl]sulfonyl}amino)phenyl]pyrazolo[1,5-a]pyrimidine-3-carboxylate], the IC50 (human B-Raf; [1]) was greater than 20000 nM and the inhibition at 10 µM (human B-Raf) was 7%.

`CCOC(=O)c1cnn2c(-c3cccc(NC(=O)c4cc(C(C)(C)C)nn4C)c3)ccnc12` [Example 243, ethyl7-(3-{[(3-tert-butyl-1-methyl-1H-pyrazol-5-yl)carbonyl]amino}phenyl)pyrazolo[1,5-a]pyrimidine-3-carboxylate] showed an IC50 (human B-Raf; [1]) greater than 10000 nM and an inhibition at 10 µM (human B-Raf) of 18%.

Work on `O=C(Nc1cccc(-c2ccnc3cc(N4CCOCC4)nn23)c1)Nc1ccc(Cl)c(Cl)c1` [Example 201, N-(3,4-dichlorophenyl)-N′-[3-(2-morpholin-4-ylpyrazolo[1,5-a]pyrimidin-7-yl)phenyl]urea] yielded an IC50 (human B-Raf; [1]) of 100 nM and an inhibition at 10 µM (human B-Raf) of 96%.

Work on `CCOC(=O)c1cnn2c(-c3cccc(NC(=O)Nc4ccc(Cl)cc4C(F)(F)F)c3)ccnc12` [Example 43, ethyl 7-{3-[({[4-chloro-2-(trifluoromethyl)phenyl]amino}carbonyl)amino]phenyl}pyrazolo[1,5-a]pyrimidine-3-carboxylate] yielded an IC50 (human B-Raf; [1]) greater than 10000 nM and an inhibition at 10 µM (human B-Raf) of 9%.

Molecule `O=C(Nc1cccc(-c2ccnc3cc(N4CCOCC4)nn23)c1)Nc1ccc(F)c(C(F)(F)F)c1` [Example 202, N-[4-fluoro-3-(trifluoromethyl)phenyl]-N′-[3-(2-morpholin-4-ylpyrazolo[1,5-a]pyrimidin-7-yl)phenyl]urea] has an IC50 (human B-Raf; [1]) of 120 nM and an inhibition at 10 µM (human B-Raf) of 96%.

In the case of `CCOC(=O)c1cnn2c(-c3ccc(OC)c(NC(=O)c4ccc(C)c(C(F)(F)F)c4)c3)ccnc12` [Example 107, ethyl 7-(4-methoxy-3-{[4-methyl-3-(trifluoromethyl)benzoyl]amino}phenyl)pyrazolo[1,5-a]pyrimidine-3-carboxylate], the IC50 (human B-Raf; [1]) is reported as greater than 10000 nM and the inhibition at 10 µM (human B-Raf) is reported as 0%.

Work on `CCOC(=O)c1cnn2c(-c3cccc(NC(=O)Nc4ccc(SC(F)(F)F)cc4)c3)ccnc12` [Example 24, ethyl 7-(3-{[({4-[(trifluoromethyl)thio]phenyl}amino)carbonyl]amino}phenyl)pyrazolo[1,5-a]pyrimidine-3-carboxylate] yielded an IC50 (human B-Raf; [1]) greater than 10000 nM and an inhibition at 10 µM (human B-Raf) of 11%.

`O=C(Nc1cccc(-c2ccnc3cc(-c4ccncc4)nn23)c1)c1ccc(Br)s1` [Example 239, 5-bromo-N-[3-(2-pyridin-4-ylpyrazolo[1,5-a]pyrimidin-7-yl)phenyl]thiophene-2-carboxamide] showed an IC50 (human B-Raf; [1]) of 200 nM and an inhibition at 10 µM (human B-Raf) of 86%.

Molecule `O=C(Nc1ccc(F)c(-c2ccnc3ccnn23)c1)c1cccc(C(F)(F)F)c1` [Example 318, N-(4-fluoro-3-pyrazolo[1,5-a]pyrimidin-7-ylphenyl)-3-(trifluoromethyl)benzamide] has an IC50 (human B-Raf; [1]) of 3550 nM and an inhibition at 10 µM (human B-Raf) of 59%.

With `Cc1cnc2c(-c3cccnc3)cnn2c1-c1cccc(NC(=O)c2cccc(C(F)(F)F)c2)c1` [Example 179, N-[3-(6-methyl-3-pyridin-3-ylpyrazolo[1,5-a]pyrimidin-7-yl)phenyl]-3-(trifluoromethyl)benzamide] the IC50 (human B-Raf) was 650 nM and the inhibition at 10 µM (human B-Raf) was 90%.

`CCOC(=O)c1cnn2c(-c3ccc(F)c(NC(=O)c4cccc(C(F)(F)F)c4)c3)ccnc12` [Example 89, ethyl 7-(4-fluoro-3-{[3-(trifluoromethyl)benzoyl]amino}phenyl)pyrazolo[1,5-a]pyrimidine-3-carboxylate] gave an IC50 (human B-Raf; [1]) of 2170 nM and an inhibition at 10 µM (human B-Raf) of 65%.

With `CCOC(=O)c1cnn2c(-c3cccc(NC(=O)Nc4cccc(Cl)c4)c3)ccnc12` [Example 80, Ethyl 7-[3-({[(3-chlorophenyl)amino]carbonyl}amino)phenyl]-pyrazolo[1,5-a]pyrimidine-3-carboxylate] the inhibition at 10 µM (human B-Raf) was 47%.

Source: patent US20070219186A1, “Pyrazolo[1,5-A]pyrimidine derivatives and methods of use thereof” (priority 2006, published 2007)
